Measurements reported in US20050221317A1, “Use of an epitope of vascular endothelial growth factor receptor kdr/flk-1” (AstraZeneca AB, priority 2002, published 2005).

Target: T1, KDR/Flk-1 receptor epitope Y1214 (Homo sapiens, UniProt P35968)
T1 construct: host or cells: HUVEC (human umbilical vein endothelial cells)
Test: Phosphorylation of the Y1214 epitope of KDR/Flk-1 in VEGF-treated HUVECs (Western blot with anti-Y1214 antibody)
Type: cell-based
Conditions: VEGF-treated HUVEC cell lysate, 0.007-5.0 uM compound, FIG. 1
Protocol: HUVECs were obtained from TCS Cellworks, Buckingham, UK (Catalogue number ZHS 8965) and cultured in Large Vessel Endothelial Cell Basal Medium+recommended 5 supplements obtained from TCS Cellworks (catalogue numbers ZHM 2951 and ZHS 8965). Cells were used when close to confluence in 3×75 cm^2 tissue culture flasks. Prior to treatment with inhibitor cells were cultured overnight in Basal Medium without supplements.
HUVECS were treated with inhibitors as follows. […] After 82 minutes 50 ng/ml VEGF was added to the cells and the cells incubated for a further 8 minutes at 37° C. After this further incubation the culture medium was removed from the cells and the cells lysed with 2.5 ml sample buffer [Sample buffer: 4 parts NuPage sample buffer (Novex, NP0007, Invitrogen, Paisley, Scotland) to 1 part distilled water]. The lysate was collected, 3 μl of β-mercaptoethanol added and heated to 95° C. for 10 minutes to ensure complete reduction and denaturation. The lysates can be stored at −20° C. until analysed.
Lysates were analysed using SDS polyacrylamide gel electrophoresis (PAGE) to separate the proteins within the lysates. […]
Nitrocellulose membranes were incubated for 1 hour in 5% solution of dried, skimmed milk powder in PBST [Marvel/PBST] at room temperature. […] The light from this is detected by photographic film, for example Kodak Biomax ML.

T1 sequence (P35968 20-1356): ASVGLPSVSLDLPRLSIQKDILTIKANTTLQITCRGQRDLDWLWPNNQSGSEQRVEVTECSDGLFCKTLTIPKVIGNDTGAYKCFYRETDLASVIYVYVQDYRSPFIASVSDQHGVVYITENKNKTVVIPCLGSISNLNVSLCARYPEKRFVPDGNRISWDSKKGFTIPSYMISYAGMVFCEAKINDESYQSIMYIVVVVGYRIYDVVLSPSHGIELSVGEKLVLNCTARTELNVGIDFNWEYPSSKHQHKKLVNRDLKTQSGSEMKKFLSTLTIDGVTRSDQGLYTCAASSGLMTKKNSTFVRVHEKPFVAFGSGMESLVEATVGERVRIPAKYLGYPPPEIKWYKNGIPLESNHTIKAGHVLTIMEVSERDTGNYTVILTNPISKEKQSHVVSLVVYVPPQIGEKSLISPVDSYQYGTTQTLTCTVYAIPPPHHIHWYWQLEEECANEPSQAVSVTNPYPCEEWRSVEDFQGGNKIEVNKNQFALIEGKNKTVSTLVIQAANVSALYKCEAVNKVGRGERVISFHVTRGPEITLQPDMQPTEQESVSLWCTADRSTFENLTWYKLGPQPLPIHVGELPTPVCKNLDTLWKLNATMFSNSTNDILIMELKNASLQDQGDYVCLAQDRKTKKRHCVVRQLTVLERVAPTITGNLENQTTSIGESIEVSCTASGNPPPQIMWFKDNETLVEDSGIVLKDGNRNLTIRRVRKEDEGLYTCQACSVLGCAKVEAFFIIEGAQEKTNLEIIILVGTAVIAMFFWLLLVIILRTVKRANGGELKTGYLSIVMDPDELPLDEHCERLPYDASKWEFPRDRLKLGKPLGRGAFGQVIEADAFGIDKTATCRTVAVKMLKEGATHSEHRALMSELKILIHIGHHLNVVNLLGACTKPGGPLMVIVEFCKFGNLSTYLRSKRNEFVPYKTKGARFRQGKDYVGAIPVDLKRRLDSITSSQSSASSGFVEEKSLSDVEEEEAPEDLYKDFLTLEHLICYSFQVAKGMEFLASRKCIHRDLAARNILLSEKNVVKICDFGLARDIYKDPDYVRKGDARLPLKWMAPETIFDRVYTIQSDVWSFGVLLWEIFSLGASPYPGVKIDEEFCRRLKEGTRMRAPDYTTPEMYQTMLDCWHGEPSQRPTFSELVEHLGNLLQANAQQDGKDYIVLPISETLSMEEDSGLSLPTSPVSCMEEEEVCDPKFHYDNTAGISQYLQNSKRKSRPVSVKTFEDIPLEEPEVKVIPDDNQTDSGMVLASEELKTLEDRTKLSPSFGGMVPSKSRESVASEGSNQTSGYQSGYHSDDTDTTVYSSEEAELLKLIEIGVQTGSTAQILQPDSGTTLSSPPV

SMILES: COc1cc2c(Oc3ccc4[nH]c(C)cc4c3F)ncnc2cc1OCCCN1CCCCC1 [4[(4-fluoro-2-methyl-1H-indol-5-yl)oxy]-6-methoxy-7-(3-piperidin-1-ylpropoxy)quinazoline]
- phosphorylation of the Y1214 epitope: dose dependent decrease in phosporylation
